{"source": "patent US20250234859A1", "about": "“AQUEOUS SUSPENSION AGROCHEMICAL COMPOSITION, DISEASE CONTROL METHOD, AND USEFUL PLANT SEEDS” (KUMIAI CHEMICAL INDUSTRY CO., LTD., priority 2021, published 2025)", "origin": "cited, not measured here", "system": "rice blast, glume blotch, cucumber downy mildew, and cucumber anthracnose", "conditions": "diseases such as rice blast, Patent Document 3", "data": [{"smiles": "O=S1(=O)N=C(OCc2snc(Cl)c2Cl)c2ccccc21", "note": "[dichlobentiazox, 3-(3,4-dichloroisothiazol-5-ylmethoxy)-1,2-benzothiazole-1,1-dioxide]", "values": [{"measurement": "effect on plant diseases", "value": "remarkable effect"}]}]}
